The source of these data is US20180325793A1, “HIGH-PERFORMANCE COSMETIC PRODUCTS CONTAINING A POLYORGANOSILOXANE AND A DIPEPTIDE” (Evonik Degussa GmbH, priority 2014, published 2018).

The data set in a line: solubility in water at room temperature. Format: physicochemical. The text has this:
The two pairs DD/LL-methionylmethionine and DL/LD-methionylmethionine are diastereomeric relative to one another and have different physical data. […] These mixtures can be incorporated/dissolved simply in an aqueous phase or an aqueous surfactant phase of a cosmetic composition.

Broadly, the solubility is the dissolved amount per volume that the medium holds. A higher solubility goes with a readily soluble substance.

Structures are written as SMILES. Values after ≈ are worked out from the molar mass of the structure shown. Where a SMILES comes first, the peptide text is derived from it.

For the compound `CSCC[C@H](NC(=O)[C@@H](N)CCSC)C(=O)O` [DD/LL-methionylmethionine, methionylmethionine] (H-Met-Met-OH), the “solubility at room temperature in water” value is 21.0 mg/mL (≈ 74.9 mM).
In the case of `CSCC[C@H](NC(=O)[C@@H](N)CCSC)C(=O)O` [DL/LD-methionylmethionine, methionylmethionine] (H-Met-Met-OH), the “solubility at room temperature in water” value amounted to 0.4 mg/mL (≈ 1.43 mM).
